According to patent US12358954B2, “Capsid-modified rAAV vector compositions and methods therefor” (priority 2012, dated 2025):
“Also recorded” adds a separate entry of the source.

Key:
[1] = test system: T47D cells; assay: AAV3 vector transduction of T47D cells; type: cell-based, human; settings: 1 μM, 2 hr; 10,000 vg/cell
Source text: (§1) Cell Lines and Cultures. Human cervical cancer (HeLa) and hepatocellular carcinoma (Huh7) cell lines were purchased from American Type Culture Collection (Manassas, Va., USA), and maintained in complete DMEM medium (Mediatech, Inc., Manassas, Va., USA) supplemented with 10% heat-inactivated fetal bovine serum (FBS, Sigma-Aldrich Co.), 1% penicillin and streptomycin (P/S, Lonza, Inc.). A newly established human hepatoblastoma (Hep293TT) cell line (Chen et al., 2009) was maintained in complete RPMI medium 1640 (Invitrogen, Inc.) supplemented with 15% heat-inactivated FBS (Sigma-Aldrich Co.), 1% penicillin and streptomycin (P/S, Lonza, Inc.). Cells were grown as adherent cultures in a humidified atmosphere at 37° C. in 5% CO2 and were sub-cultured after treatment with trypsin-versene mixture (Lonza, Inc.) for 2-5 min at room temperature, washed and re-suspended in complete medium. […]
(§2) Human HGFR is required for AAV3 infectivity. […] Equivalent numbers of T47D and T47D+hHGFR cells were transduced with various multiplicities-of-infection (MOI) of self-complementary (sc) AAV3-CBAp-EGFP vectors under identical conditions and transgene expression was determined 72 hr post-transduction.

[2] = biological target: T1, HGFR kinase (Homo sapiens, UniProt P08581); assay: Western blot of HGFR phosphorylation and downstream signaling; type: cell-based; settings: T47D+hHGFR cells
T1 construct: expressed in transfected cells; host or cells: T47D human breast cancer cells stably transfected with a hHGFR expression plasmid (T47D+hHGFR); parental T47D as control
Procedure: Cells were harvested and disrupted in a radio-immunoprecipitation assay (RIPA) lysis buffer (50 mM Tris-HCl, pH 8.0, 150 mM NaCl, 0.1% SDS, 1% NP-40, 0.25% sodium deoxycholate and 1 mM EDTA with protease inhibitor cocktail, 1 mM NaF and 1 mM Na3VO4). Total protein concentration was measured using a Bradford reagent (Bio-Rad) and equal amounts (50 μg) of whole cell lysates were resolved by SDS-PAGE. After electrophoresis, samples were electro-transferred to a nitrocellulose membrane (Bio-Rad), probed with relevant primary antibodies at 4° C. overnight, incubated with horseradish peroxidase-conjugated secondary antibodies (Jackson ImmunoResearch, West Grove, Pa., USA), and detected with an enhanced chemi-luminescence substrate (Amersham). […]
To examine whether inhibition of the HGFR kinase led to alterations in the phosphorylation status of specific cellular proteins involved in the downstream signaling pathway total and phosphorylation levels of the HGFR protein in both T47D and T47D+hHGFR lysates were determined following a 2-hr drug-incubation period. Activation of signaling pathways downstream from HGFR kinase, ERK1/2 and Akt, were analyzed using phosphorylation-specific antibodies.

[3] = test system: T47D+hHGFR cells; assay: AAV vector transduction of T47D+hHGFR cells; type: cell-based, human
Source text: as §1, §2

[4] = test system: HeLa cells; assay: AAV-EGFP transduction of HeLa cells in the presence of NF-κB modulators; type: cell-based, human; settings: HeLa, scAAV-EGFP
Procedure: (§3) Recombinant AAV Vector Transduction Assays in Vitro. Optimal concentration of NF-κB-modulating compounds was determined by a cell viability assay with tenfold-dilutions from the IC50 or were used as described previously (Wu and Miyamoto, 2008; Kumar et al., 2008). VP16 or Bay11 (10 or 5 μM, final concentration), and PDTC (50 or 25 μM final concentration) were used either alone or in activator/inhibitor combinations. For transduction experiments, approximately 1×10^5 HeLa cells were either pre-treated with these compounds 24 hrs prior to vector infection. Cells were transduced with 500 or 2,000 vector genomes (vgs) per cell of recombinant WT-AAV or TM-AAV vectors encoding the EGFP transgene as described previously (Markusic et al., 2010). After 7 days of culture, primary human dendritic cells were transduced with AAV vectors at 2000 vgs/cell and incubated for 48 hrs. Transgene expression was assessed as total area of green fluorescence (pixel^2) per visual field (mean±SD), or by flow cytometry. Analysis of variance (ANOVA) was used to compare between test results and the control and they were determined to be statistically significant.

[5] = test system: HeLa cells; assay: Recombinant AAV2 vector transduction assay in vitro (EGFP imaging); type: cell-based, human
Procedure: Recombinant AAV2 Vector Transduction Assays in Vitro. Approximately 1×10^5 HeLa cells were used for transductions with recombinant AAV2 vectors. The transduction efficiency was measured 48-hr post-transduction by EGFP imaging using fluorescence microscopy. Images from three to five visual fields were analyzed quantitatively by ImageJ analysis software (NIH, Bethesda, Md., USA). Transgene expression was assessed as total area of green fluorescence (pixel^2) per visual field (mean±SD). Analysis of variance (ANOVA) was used to compare between test results and the control and they were determined to be statistically significant.
The transduction efficiency of each of the tyrosine-mutant vectors was analyzed and compared with the WT scAAV2-EGFP vector in HeLa cells in vitro under identical conditions. […] Specifically, the transduction efficiency of Y444F, Y500F, Y730F vectors was ˜8- to 11-fold higher than the WT vector.
In a second study, HeLa cells, either mock-treated or treated with Tyr23, a specific inhibitor of EGFR-PTK, or MG132, a proteasome inhibitor, both known to increase the transduction efficiency of AAV vectors, were mock-infected or infected with the WT or Y730F scAAV2-EGFP vectors.

[6] = test system: Hep293TT cells; assay: AAV3 vector transduction assay in Hep293TT cells; type: cell-based, human
Procedure: (§4) AAV Vector Transduction Assays. Huh7 or HeLa cells were seeded in 96-well plates at a concentration of 5,000 cells per well in complete DMEM medium. AAV infections were performed in serum- and antibiotic-free DMEM medium. Hep293TT cells were seeded in 96-well plates at a concentration of 10,000 cells per well in complete RPMI medium. The infections were performed in serum- and antibiotic-free RPMI medium. The expression of EGFP was analyzed by direct fluorescence imaging 72 hrs' post-transduction.

[7] = test system: HeLa cells; assay: scAAV2 transduction of HeLa cells with MG132 or Tyr23 (positive control); type: cell-based, human; settings: MG132 5 μM; Tyr23 200 μM
Procedure: as §4
Proteasome Inhibitors Increase the Transduction Efficiency of AAV3 Vectors. […] To evaluate whether MG132 can also improve AAV3 trafficking in target cells, Huh7, a well-established human hepatocellular carcinoma cell line (Nakabayashi et al., 1982), and Hep293TT, a recently established human hepatoblastoma cell line (Chen et al., 2009), were either mock-treated or treated with increasing concentrations of MG132. […] Transgene expression was determined by fluorescence microscopy 72 hrs post-transduction.
Previous studies have also shown that inhibition of EGFR-PTK signaling by Tyrphostin 23 (Tyr23), a specific inhibitor of EGFR-PTK (May et al., 1998), modulates the Ub/proteasome pathway, which in turn, facilitates intracellular trafficking and transgene expression mediated by AAV2 vectors (Zhong et al., 2007). […] Transgene expression was determined 72 hr post-transduction.

[8] = test system: primary human dendritic cells; assay: FACS analyses of markers of maturation (CD83, CD86) of primary human dendritic cells; type: cell-based
Procedure: Cells, Antibodies and Chemicals. HeLa cells were obtained from the American Type Culture Collection (Rockville, Md., USA) and maintained as monolayer cultures in Iscove's-modified Dulbecco's medium (IMDM, Invitrogen, Inc., Carlsbad, Calif., USA) supplemented with 10% newborn calf serum (NCS) (Lonza, Inc., Basel, SWITZERLAND) and antibiotics. Leukapheresis-derived PBMCs were resuspended in serum-free AIM-V medium (Lonza, Inc.) and semi-adherent cell fractions were incubated in serum-free AIM-V medium supplemented with recombinant human IL-4 (500 U/mL) and GM-CSF (800 U/mL) (R&D Systems, MN, USA). Cells were treated with NF-κB modulators ([…]), and cytokines cocktail including 10 ng/mL TNF-α, 10 ng/mL IL-1, 10 ng/mL IL-6, […] (R&D Systems) for 20 hr. Cells were harvested, characterized to ensure they met the typical phenotype of mature DCs (CD83, RPE, murine IgG1, CD86, FITC, murine IgG1; Invitrogen, Inc.). All primary and secondary antibodies were purchased from Cell Signaling Technology, Inc. (Danvers, Mass., USA) or Santa Cruz Biotechnology, Inc (Santa Cruz, Calif., USA). NF-kB activators [Etoposide (VP16), Aphidicolin, Hydroxyurea (HU)] and NF-kB inhibitors [Bay11-7082 (Bay11), Pyrrolidine dithiocarbamate (PDTC)] were purchased from Sigma-Aldrich Co. (St. Louis, Mo., USA). These compounds were re-suspended in either DMSO (Sigma-Aldrich Co.) or in sterile, DNAase-, RNAase-free water (Invitrogen, Inc.) as per the manufacturer's instructions.

[9] = test system: non-canonical NF-κB pathway (p100, p52); assay: Western blot of NF-κB pathway components in HeLa cells; type: cell-based, human; settings: in the presence of VP16
Source text: Western Blot Analyses. Homogenized lysates of the cell pellets from ˜2×10^6 HeLa cells or DCs, mock or pre-treated with the optimal concentration of NF-κB activators or inhibitors were used for sample preparation. Whole cell proteins were isolated using the RIPA lysis buffer (Sigma-Aldrich Co.) and cytoplasmic and nuclear proteins were extracted using a commercial kit (NE-PER Extraction Reagent Kit, Pierce Biotech, Rockford, Ill., USA) as per the manufacturer's protocol in the presence of a protease inhibitor cocktail (Halt™ Protease Inhibitor Cocktail Kit, Pierce Biotech). The protein extracts were boiled for 5 min under reducing conditions [SDS-sample buffer containing 62.5 mM Tris-HCl (pH 6.8 at 25° C.), 2% wt./vol. SDS, 10% glycerol, 50 mM DTT, 0.01% wt./vol. bromo-phenol blue (Cell Signaling Technology, Inc.)] and stored at −86° C. until further analysis. Equal volumes of samples were run on 4-15% SDS-PAGE (Bio-Rad, Hercules, Calif., USA). […] The intensity of the protein bands was measured with Adobe Photoshop CS3 Software® and normalized to proteins levels from the housekeeping gene products used as loading controls.

[10] = test system: primary human dendritic cells; assay: AAV-EGFP transduction of primary human dendritic cells with NF-κB modulators (flow cytometry); type: cell-based
Procedure: as §3
Cells, Antibodies and Chemicals. […]

[11] = test system: K562 cells; assay: AAV6 transduction of K562 cells after enzyme / inhibitor treatment; type: cell-based, human
Source text: More recently, Denard et al. reported that galectin-3-binding protein in human sera agglutinates AAV6 vectors, which results in decreased transduction efficiency of these vectors. […] The identity of the putative receptor for AAV6 vectors in human CD34^+ cells remains elusive, and additional studies are warranted. […] The implication is that AAV6 uses a protein rather than a lipid on K562 cells for binding and entry into these cells. In addition, because AAV6 is known to have evolved from recombination between AAV1 and AAV2, and because AAV2 uses heparan sulfateproteoglycan (HSPG) as the primary cellular receptor, the level of HSPG expression on K562 cells surface was examined by FACS. […] The effect of inhibitors of O-linked and N-linked glycosylation was also evaluated on the transduction efficiency of AAV6 vectors in K562 cells.

[12] = Mature DCs + AAV + Cytokines + modulator

T1 sequence (P08581 25-1390): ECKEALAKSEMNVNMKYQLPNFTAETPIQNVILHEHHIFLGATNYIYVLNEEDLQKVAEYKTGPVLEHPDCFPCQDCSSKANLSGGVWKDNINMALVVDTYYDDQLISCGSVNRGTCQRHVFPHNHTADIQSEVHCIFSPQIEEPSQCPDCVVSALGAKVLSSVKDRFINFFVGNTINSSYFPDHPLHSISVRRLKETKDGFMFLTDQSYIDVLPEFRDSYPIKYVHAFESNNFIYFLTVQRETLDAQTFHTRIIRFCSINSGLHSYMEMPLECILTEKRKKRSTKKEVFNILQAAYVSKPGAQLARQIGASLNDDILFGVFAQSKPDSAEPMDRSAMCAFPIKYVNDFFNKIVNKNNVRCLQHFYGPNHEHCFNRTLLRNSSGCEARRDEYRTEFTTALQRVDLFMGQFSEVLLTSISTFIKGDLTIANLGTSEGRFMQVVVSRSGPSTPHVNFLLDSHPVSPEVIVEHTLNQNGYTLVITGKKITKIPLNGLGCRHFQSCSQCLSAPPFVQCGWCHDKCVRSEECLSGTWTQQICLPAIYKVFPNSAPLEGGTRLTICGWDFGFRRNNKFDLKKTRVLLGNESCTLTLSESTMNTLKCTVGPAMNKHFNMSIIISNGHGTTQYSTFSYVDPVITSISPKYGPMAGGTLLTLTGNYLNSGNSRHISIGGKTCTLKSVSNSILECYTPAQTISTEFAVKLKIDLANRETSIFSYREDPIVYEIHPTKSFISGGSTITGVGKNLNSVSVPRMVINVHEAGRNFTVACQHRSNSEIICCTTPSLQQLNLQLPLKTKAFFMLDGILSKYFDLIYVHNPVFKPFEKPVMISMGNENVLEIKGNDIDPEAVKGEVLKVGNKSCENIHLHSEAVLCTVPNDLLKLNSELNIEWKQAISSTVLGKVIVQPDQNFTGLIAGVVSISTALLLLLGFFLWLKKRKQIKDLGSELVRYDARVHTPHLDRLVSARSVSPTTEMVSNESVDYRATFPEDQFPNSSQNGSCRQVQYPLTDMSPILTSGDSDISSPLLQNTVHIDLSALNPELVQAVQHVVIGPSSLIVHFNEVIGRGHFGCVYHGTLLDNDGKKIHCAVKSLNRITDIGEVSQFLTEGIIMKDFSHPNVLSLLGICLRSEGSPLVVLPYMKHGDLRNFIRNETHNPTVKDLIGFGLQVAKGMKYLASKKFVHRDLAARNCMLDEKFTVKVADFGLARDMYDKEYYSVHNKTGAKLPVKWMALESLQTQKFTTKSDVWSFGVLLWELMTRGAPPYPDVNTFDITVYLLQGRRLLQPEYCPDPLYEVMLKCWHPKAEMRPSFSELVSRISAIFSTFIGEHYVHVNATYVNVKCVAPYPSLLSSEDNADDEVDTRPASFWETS

## CCOc1ccn(-c2ccc(F)cc2)c(=O)c1C(=O)Nc1ccc(Oc2ccnc(N)c2Cl)c(F)c1 [BMS-777607, N-(4-(2-amino-3-chloropyridin-4-yloxy)-3-fluorophenyl)-4-ethoxy-1-(4-fluorophenyl)-2-oxo-1,2-dihydropyridine-3-carboxamide]
[1]
  AAV3 infectivity: no effect
[2]
  expression of phosphorylated AKT and ERK1/2: no effect
[2]; 2-hr incubation
  phosphorylation of HGFR: completely blocked
[3]; 1 μM, 2 hr, 10,000 vg/cell
  AAV3 infectivity: significantly enhanced

## S=C(S)N1CCCC1 [PDTC, Pyrrolidine dithiocarbamate]
[4]
  AAV vector-mediated EGFP expression, fold augmentation: had no effect; also recorded: no noticeable effect

## N#CC(C#N)=Cc1ccc(O)c(O)c1 [Tyr23, Tyrphostin 23]
[5]
  increase in transduction efficiency of WT scAAV2-EGFP by pretreatment: ~9 fold
[6]
  amounts of internalized viral DNA in presence or absence of inhibitor: no significant difference
[6]; 2 hr treatment
  transduction efficiency of scAAV3 vectors after treatment: significant increase
[7]
  transduction efficiency of scAAV2 vectors after pretreatment: significant increase

## COc1cc([C@@H]2c3cc4c(cc3[C@@H](O[C@@H]3O[C@@H]5CO[C@@H](C)O[C@H]5[C@H](O)[C@H]3O)[C@H]3COC(=O)[C@H]23)OCO4)cc(OC)c1O [VP16, Etoposide]
[8]
  maturation of DCs (CD83, CD86): not able to induce maturation
[8]; DCs without cytokines
  Geometric means of levels of expression in cells expressing CD83: 16.48
  Geometric means of levels of expression in cells expressing CD86: 13.70
[8]; [12]
  Geometric means of levels of expression in cells expressing CD83: 19.92
  Geometric means of levels of expression in cells expressing CD86: 21.92
[9]
  increase in cytosolic p100 and nuclear p52: 3- to 6 fold
[10]
  EGFP expression increase compared with scAAV vector-transduced DCs: ~20 fold

## hHGF: human hepatocyte growth factor
[3]; 5 μg/mL hHGF, 2,000 vgs/cell
  AAV3 vector-mediated transduction in the presence of hHGF: completely blocked

## heparin
[11]
  effect on AAV6 vector-mediated transduction of K562 cells: could not be inhibited

## phospholipase A2
[11]
  effect on AAV6 vector-mediated transduction of K562 cells: no significant change

## tunicamycin
[11]
  effect on AAV6 vector-mediated transduction of K562 cells: markedly reduced
